Assay [1] has as its target T1, AiWssI^ΔN (Achromobacter insuavis, UniProt A0A6J5I893). The assay can be described thus: Follow-up standard MU-Ac esterase assay (dose-response). Type of assay: biochemical. As for the experimental part:
The fluorescence substrate, MU-Ac, was also tested as a substrate of WssI^ΔN for its amenability to the planned high-throughput analyses (see later). Reaction setups were exactly the same as that for pNP-Ac, with the exceptions of the assay buffer (50 mM sodium phosphate, 150 mM NaCl, 1 mM DTT, pH 7), MU-Ac as the acetyl donor (final concentration of 0.5 mM along with 5% [v/v] dimethyl sulfoxide, as this was the solvent for MU-Ac), and the assay was performed in fluorescence compatible microplates (Grenier BioOne) and monitored with excitation and emission wavelengths of 365 and 450 nm, respectively for 60 min.
(§1) All inhibitor compounds for confirmatory assays were purchased from Enamine Ltd, with the exception of compound 1 (Santa Cruz Biotechnology, Inc), Compounds 2 and 7 (Molport via Maybridge Ltd and Vitas M Chemical Ltd, respectively) and compound 6 (Mcule, Inc). The dose–response curves were generated using either CDD Vault Analysis Software (Collaborative Drug Discovery, Inc) or GraphPad Prism, version 8.4.3. Inhibition constants (Ki) were calculated using the Cheng–Prusoff equation for competitive inhibition that is calculated using the KM of the uninhibited enzyme, the substrate concentration (S) at which the IC50 values were calculated, and the IC50 value of the inhibitor ([92]): Ki=IC50/(S/KM+1)

For assay [2], the target named is serine/threonine phosphatase calcineurin. Also on record: method as in PMID 9763224. Conditions: p-nitrophenyl phosphate as a substrate; cited from earlier work.
The target in assay [3] is T1, AiWssI^ΔN. Briefly: HTS MU-Ac fluorescence esterase dose-response assay. The assay is classed as biochemical. The settings on record: MU-Ac as esterase substrate. As for the experimental part: Large-scale HTS was conducted at the SPARC BioCentre Drug Discovery (Hospital for Sick Children, Toronto, Canada) with a subset of the Chembridge DIVERset library collection (as well as 135 manually selected compounds based on success against other SGNH enzymes) in a 384-well format. The assay was performed in singlet during the primary screen of the entire compound list and in triplicate for a follow-up confirmatory screen. Reaction setups for both screens were conducted with 50 mM sodium phosphate buffer (pH 6.5), 3 μM AiWssI^ΔN and 0.5 mM MU-Ac (final concentration of 5% [v/v] dimethyl sulfoxide) using a Thermo MultiDrop Combi Reagent Dispenser. The reaction was initiated by the addition of 20 μM of the test compounds using an Echo 550 acoustic dispenser (Labcyte). Fluorescence was monitored with a SynergyNeo microplate reader (BioTek) using excitation and emission wavelengths of 365 and 450 nm, respectively, for approximately 45 min alongside appropriate negative and positive controls. […] The hits remaining after the primary and confirmatory screening were examined further to identify possible PAINS, which could result in false-positive results ([91]). Further refinement of the lead candidates was also conducted by assessing the fluorescence quenching potential of lead compound hits by assaying the quenching potential of different compound concentrations (10.1 μM and/or 50.5 μM) against the fluorescence of 4-methylumbeliferone (247 μM) to reveal any potential false positives that were not actually because of AiWssI^ΔN activity. All fluorescence readings were normalized using the following equation to determine the percentage of quenching ([92]): NormalizedFlouresence=Fobs−μFmin/μFmax−μFminx100% In the aforementioned formula, Fobs is the sample fluorescence value, μFmin is the mean fluorescence value of the negative controls, and μFmax is the mean fluorescence value of the positive controls.
as §1

The target of assay [4] is T1, AiWssI^ΔN. The assay is classed as biochemical. The settings on record: 1 h incubation with reagent (1 mM PMSF, 5 mM MSF, 5 mM EDTA, 0.1 mM E-64, 20 μM Pepstatin A); 6 mM pNP-Ac, pH 7. As for the experimental part: (§2) The enzymatic rate of the WssI^ΔN proteins was measured using chromogenic assays in a 50 mM sodium phosphate-buffered (pH 7) solution, with WssI^ΔN (3 μM unless specified otherwise) and were initiated by the addition of pNP-Ac to a final concentration of 6 mM (dissolved in 5% [v/v] ethanol). Assay samples and corresponding controls (i.e., containing no WssI^ΔN and/or substrate) were run in quadruplicate, and the progress of the reaction was monitored at 405 nm (Cytation5) for 30 min in 1 min intervals following a 5 s initial linear shake to mix contents thoroughly. These conditions were deemed standard assay conditions for subsequent trials except where modifications are noted. The activity assay to determine optimal pH and buffer type was performed with 2-(N-morpholino)ethanesulfonic acid over pH ranges of 5.5 to 6.5, sodium phosphate for pH 6.5 to 7.5, and Tris for the final range of 7.5 to 9.25. In addition, standard assay conditions were modified by incorporating various inhibitors and common reducing agents to determine effects on WssI^ΔN activity. […] To test the effects of the absence of DTT, trials were conducted where DTT was removed from all purification and dialysis buffers, unless mentioned otherwise. Data are either reported in specific activity as units of esterase activity (i.e., the amount of enzyme required to release 1 μmol of p-nitrophenol per min^−1 per mg of protein^−1) or as percent residual activity when compared with the WssI^ΔN controls (i.e., containing no inhibitors).

A further assay has as its target T2, PfWssI^ΔN (Pseudomonas fluorescens, UniProt Q8RSY4).
T2 sequence (Q8RSY4 92-374): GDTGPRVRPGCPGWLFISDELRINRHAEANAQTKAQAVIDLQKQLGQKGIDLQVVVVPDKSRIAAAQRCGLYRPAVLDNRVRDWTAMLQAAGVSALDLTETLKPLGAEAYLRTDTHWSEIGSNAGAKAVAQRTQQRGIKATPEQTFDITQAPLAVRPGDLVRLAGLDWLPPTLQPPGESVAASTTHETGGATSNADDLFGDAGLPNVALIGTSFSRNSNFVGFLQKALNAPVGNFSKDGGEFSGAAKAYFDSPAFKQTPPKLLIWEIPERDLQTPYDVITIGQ
Type of assay: biochemical. The settings on record: 1 h incubation with reagent (1 mM PMSF, 5 mM MSF, 5 mM EDTA, 0.1 mM E-64, 20 μM Pepstatin A); 6 mM pNP-Ac, pH 7. As for the experimental part:
as §2

T1 sequence (A0A6J5I893 entry or part of it, stated change not applied): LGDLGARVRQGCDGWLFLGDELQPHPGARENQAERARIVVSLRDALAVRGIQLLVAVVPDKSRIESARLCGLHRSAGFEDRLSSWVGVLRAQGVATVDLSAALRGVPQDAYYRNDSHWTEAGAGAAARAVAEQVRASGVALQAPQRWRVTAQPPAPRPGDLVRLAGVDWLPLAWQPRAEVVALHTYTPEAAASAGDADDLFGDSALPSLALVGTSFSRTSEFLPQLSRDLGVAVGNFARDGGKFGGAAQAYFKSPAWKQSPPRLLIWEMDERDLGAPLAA

As a reminder, the IC50 is the point on the concentration scale where inhibition reaches its midpoint. The term Ki denotes the dissociation constant of the complex between target and ligand, obtained from inhibition or displacement. With `N#CC(C#N)=C(N)/C(C#N)=C/c1ccc(O)cc1` [Compound 1, (3Z)-2-Amino-3-[(4-hydroxyphenyl)-methylidene]prop-1-ene-1,1,3-tricarbonitrile], the IC50 was 28.4 µM at AiWssI^ΔN [1] (MU-Ac (0.5 mM) as esterase substrate, read-out: Second MU-Ac IC50); 30 µM in assay [2]; 10.1 µM at AiWssI^ΔN [3]. Further, on AiWssI^ΔN [1] (MU-Ac as esterase substrate, Cheng-Prusoff, competitive inhibition, read-out: Second MU-Ac Ki), the Ki was found to be 15.1 µM.
`CC(C)C[C@H](NC(=O)[C@H]1O[C@@H]1C(=O)O)C(=O)NCCCCN=C(N)N` [E-64]: at AiWssI^ΔN [4], the “Residual activity AiWssI^ΔN” value is on record as 130.8 ± 9.1%. For the same molecule, the “Residual activity PfWssI^ΔN” value at PfWssI^ΔN was found to be 107.8 ± 10.8%.
Turning to `CS(=O)(=O)F` [MSF, methanesulfonyl fluoride], the “Residual activity AiWssI^ΔN” value on AiWssI^ΔN [4] is recorded as 95.0 ± 6.2%. At PfWssI^ΔN, the “Residual activity PfWssI^ΔN” value is on record as 112.1 ± 4.4%.
Taken in the same sequence, the figures for `O=S(=O)(F)Cc1ccccc1` [PMSF] were 106.3 ± 6.8% and 103.2 ± 4.2%.

(Values after paper PMC10302187, “WssI from the Gram-negative bacterial cellulose synthase is an O-acetyltransferase that acts on cello-oligomers with several acetyl donor substrates” (The Journal of Biological Chemistry, 2023).)
